Measured values: BindingDB's records for patent US10519177 (Plexxikon Inc., 2019)

molecular target: T1, Bromodomain-containing protein 4 [1-477] (Human, UniProt O60885)
T1 construct: 1-477

IC50, < 1 µM:
COC(=O)c1ccc(-c2c[nH]c3cc(-c4c(C)noc4C)cnc23)cc1 [US10519177, Compound P-1033]
Cc1noc(C)c1-c1cnc2c(-c3ccc(C(=O)O)cc3)cn(CC3CC4(CCC4)C3)c2c1 [US10519177, Compound P-0603]
Cc1noc(C)c1-c1cnc2c(I)cn(Cc3ccccc3C#N)c2c1 [US10519177, Compound P-0921]
